Test results from publication PMC12620416 (Molecular Plant Pathology, 2025).
≈ marks a conversion by molar mass, not a printed value.

What was measured:
[1] = system: Xanthomonas oryzae pv. oryzae (Xoo) PXO99A; assay: microbe, parasite or virus in culture; conditions: read-out: EC50 (mg/L)
[2] = target: T1, ISXoo15 transposase (Xanthomonas oryzae, UniProt A0A0K0GFE1); assay: biochemical
T1 construct: gene PXO_03433
T1 sequence (A0A0K0GFE1 1-315): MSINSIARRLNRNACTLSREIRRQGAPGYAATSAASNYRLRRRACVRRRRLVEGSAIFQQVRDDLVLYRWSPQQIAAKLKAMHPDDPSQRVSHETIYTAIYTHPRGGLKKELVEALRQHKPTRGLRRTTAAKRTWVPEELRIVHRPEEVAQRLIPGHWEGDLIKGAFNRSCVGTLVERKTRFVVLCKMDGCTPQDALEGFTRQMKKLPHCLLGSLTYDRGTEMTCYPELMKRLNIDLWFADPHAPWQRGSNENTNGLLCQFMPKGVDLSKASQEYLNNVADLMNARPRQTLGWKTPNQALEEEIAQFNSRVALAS

SMILES | EC50 [1] [mg/L] | Kd [2] [nM]
C=C[C@]1(C)C[C@@H](OC(=O)CSc2ncc(OC)c(OS(=O)(=O)c3ccc(F)c(F)c3F)n2)[C@]2(C)[C@H](C)CC[C@]3(CCC(=O)[C@H]32)[C@@H](C)[C@@H]1O [J17] | 0.22 ± 0.09 (≈ 0.309 µM) | –
C=C[C@]1(C)C[C@@H](OC(=O)CSc2ncc(OC)c(OS(=O)(=O)c3c(F)cccc3F)n2)[C@]2(C)[C@H](C)CC[C@]3(CCC(=O)[C@H]32)[C@@H](C)[C@@H]1O [J4] | 0.34 ± 0.04 (≈ 0.489 µM) | –
C=C[C@]1(C)C[C@@H](OC(=O)CSc2ncc(OC)c(O)n2)[C@]2(C)[C@H](C)CC[C@]3(CCC(=O)[C@H]32)[C@@H](C)[C@@H]1O [J9] | 0.12 ± 0.02 (≈ 0.231 µM) | 187
C=C[C@]1(C)C[C@@H](OC(=O)CSc2ncc(OC)c(OS(=O)(=O)CCCC)n2)[C@]2(C)[C@H](C)CC[C@]3(CCC(=O)[C@H]32)[C@@H](C)[C@@H]1O [J21] | 2.79 ± 0.39 (≈ 4.37 µM) | –
C=C[C@]1(C)C[C@@H](OC(=O)CSc2ncc(OC)c(OS(=O)(=O)c3c(C)cc(C)cc3C)n2)[C@]2(C)[C@H](C)CC[C@]3(CCC(=O)[C@H]32)[C@@H](C)[C@@H]1O [J19] | 0.16 ± 0.06 (≈ 0.228 µM) | –
C=C[C@]1(C)C[C@@H](OC(=O)CSc2ncc(OC)c(OS(=O)(=O)c3ccc(Cl)cc3Br)n2)[C@]2(C)[C@H](C)CC[C@]3(CCC(=O)[C@H]32)[C@@H](C)[C@@H]1O [J14] | 0.3 ± 0.02 (≈ 0.389 µM) | –
C=C[C@]1(C)C[C@@H](OC(=O)CSc2ncc(OC)c(OS(=O)(=O)c3ccc(Br)cc3OC(F)(F)F)n2)[C@]2(C)[C@H](C)CC[C@]3(CCC(=O)[C@H]32)[C@@H](C)[C@@H]1O [J11] | 0.39 ± 0.27 (≈ 0.475 µM) | –
C=C[C@]1(C)C[C@@H](OC(=O)CSc2ncc(OC)c(OS(=O)(=O)c3ccc(C)cc3)n2)[C@]2(C)[C@H](C)CC[C@]3(CCC(=O)[C@H]32)[C@@H](C)[C@@H]1O [J2] | 0.26 ± 0.17 (≈ 0.386 µM) | –
C=C[C@]1(C)C[C@@H](OC(=O)CSc2ncc(OC)c(OS(=O)(=O)c3c(C)c(C)c(C)c(C)c3C)n2)[C@]2(C)[C@H](C)CC[C@]3(CCC(=O)[C@H]32)[C@@H](C)[C@@H]1O [J6] | 0.33 ± 0.09 (≈ 0.453 µM) | –
C=C[C@]1(C)C[C@@H](OC(=O)CSc2ncc(OC)c(OS(=O)(=O)c3ccc(OC(F)(F)F)cc3)n2)[C@]2(C)[C@H](C)CC[C@]3(CCC(=O)[C@H]32)[C@@H](C)[C@@H]1O [J24] | 0.26 ± 0.05 (≈ 0.35 µM) | –
C=C[C@]1(C)C[C@@H](OC(=O)CSc2ncc(OC)c(OS(=O)(=O)c3cccc(Cl)c3F)n2)[C@]2(C)[C@H](C)CC[C@]3(CCC(=O)[C@H]32)[C@@H](C)[C@@H]1O [J12] | 0.26 ± 0.12 (≈ 0.366 µM) | –
C=C[C@]1(C)C[C@@H](OC(=O)CSc2ncc(OC)c(OS(=O)(=O)c3c(C)c(C)cc(C)c3C)n2)[C@]2(C)[C@H](C)CC[C@]3(CCC(=O)[C@H]32)[C@@H](C)[C@@H]1O [J20] | 0.35 ± 0.06 (≈ 0.49 µM) | –
C=C[C@]1(C)C[C@@H](OC(=O)CSc2ncc(OC)c(OS(=O)(=O)c3ccc(C(F)(F)F)cc3)n2)[C@]2(C)[C@H](C)CC[C@]3(CCC(=O)[C@H]32)[C@@H](C)[C@@H]1O [J3] | 0.81 ± 0.08 (≈ 1.11 µM) | –
C=C[C@]1(C)C[C@@H](OC(=O)CSc2ncc(OC)c(OS(=O)(=O)c3ccc(CC)cc3)n2)[C@]2(C)[C@H](C)CC[C@]3(CCC(=O)[C@H]32)[C@@H](C)[C@@H]1O [J23] | 0.58 ± 0.07 (≈ 0.844 µM) | –
C=C[C@]1(C)C[C@@H](OC(=O)CSc2ncc(OC)c(OS(=O)(=O)c3cc(Br)c(F)cc3F)n2)[C@]2(C)[C@H](C)CC[C@]3(CCC(=O)[C@H]32)[C@@H](C)[C@@H]1O [J13] | 0.22 ± 0.05 (≈ 0.284 µM) | –
C=C[C@]1(C)C[C@@H](OC(=O)CSc2ncc(OC)c(OS(=O)(=O)c3ccc(Cl)cc3)n2)[C@]2(C)[C@H](C)CC[C@]3(CCC(=O)[C@H]32)[C@@H](C)[C@@H]1O [J22] | 0.34 ± 0.17 (≈ 0.49 µM) | –
C=C[C@]1(C)C[C@@H](OC(=O)CSc2ncc(OC)c(OS(=O)(=O)CC)n2)[C@]2(C)[C@H](C)CC[C@]3(CCC(=O)[C@H]32)[C@@H](C)[C@@H]1O [J1] | 0.41 ± 0.15 (≈ 0.671 µM) | –
C=C[C@]1(C)C[C@@H](OC(=O)CSc2ncc(OC)c(OS(=O)(=O)c3ccc(F)cc3)n2)[C@]2(C)[C@H](C)CC[C@]3(CCC(=O)[C@H]32)[C@@H](C)[C@@H]1O [J16] | 0.26 ± 0.03 (≈ 0.384 µM) | –
C=C[C@]1(C)C[C@@H](OC(=O)CSc2ncc(OC)c(OS(=O)(=O)C3CC3)n2)[C@]2(C)[C@H](C)CC[C@]3(CCC(=O)[C@H]32)[C@@H](C)[C@@H]1O [J15] | 0.37 ± 0.09 (≈ 0.594 µM) | –
C=C[C@]1(C)C[C@@H](OC(=O)CSc2ncc(OC)c(OS(=O)(=O)c3cccc(F)c3)n2)[C@]2(C)[C@H](C)CC[C@]3(CCC(=O)[C@H]32)[C@@H](C)[C@@H]1O [J10] | 0.2 ± 0.13 (≈ 0.295 µM) | –
C=C[C@]1(C)C[C@@H](OC(=O)CSc2ncc(OC)c(OS(=O)(=O)c3c(F)c(F)c(F)c(F)c3F)n2)[C@]2(C)[C@H](C)CC[C@]3(CCC(=O)[C@H]32)[C@@H](C)[C@@H]1O [J5] | 0.77 ± 0.56 (≈ 1.03 µM) | –
C=C[C@]1(C)C[C@@H](OC(=O)CSc2ncc(OC)c(OS(=O)(=O)c3ccc(C#N)cc3)n2)[C@]2(C)[C@H](C)CC[C@]3(CCC(=O)[C@H]32)[C@@H](C)[C@@H]1O [J18] | 0.29 ± 0.09 (≈ 0.424 µM) | –
C=C[C@]1(C)C[C@@H](OC(=O)CSc2ncc(OC)c(OS(=O)(=O)c3cccc(Br)c3)n2)[C@]2(C)[C@H](C)CC[C@]3(CCC(=O)[C@H]32)[C@@H](C)[C@@H]1O [J7] | 0.27 ± 0.11 (≈ 0.366 µM) | –
